For this experiment, the system named is Adenosine A1 receptor. As to the kind of experiment: A1-agonist stimulated [35S]GTPγS binding to G proteins. The experiment is classed as biochemical. To be noted: for GTPγS: normalized to the full agonist CPA. Here is the method:
At the end of the incubation, each suspension was filtered and the retained radioactivity determined as described above.
On the technique in general: GTPγS resists hydrolysis and so accumulates on activated G proteins.

With `OC[C@H]1O[C@@H](n2cnc3c(NC4CCCC4)ncnc32)[C@H](O)[C@@H]1O` [CPA, N^6-cyclopentyladenosine, reference compound], the GTPγS is recorded as 100% (Table 1, compounds of Example 2); 100% (Table 2, compounds of Example 3); 100% (Table 3, compounds of Example 4). Under “Table 5”, the “GTPγS (% of CPA)” value is reported as 100 % of CPA.

These data come from patent US6576620B2, “Method of identifying partial adenosine A1 receptor agonists” (CV Therapeutics, Inc., priority 1999, dated 2003).
